Reference: US5968920A, “Compounds having a benzisoselen-azoline and -azine structure, method for preparing same and therapeutic uses thereof” (Oxis Isle of Man, Limited, priority 1994, dated 1999)

How the values were obtained:
endothelial cells [1] = assay: Adhesion of PMN to endothelial cells induced by TNF-α (myeloperoxidase); assay type: cell-based, human; conditions: compound 10 μM vs pentoxifylline 50 μM; TNF-α 1 ng/ml
Description: (§1) Human endothelial cells were cultivated under the same conditions as those described for Example 18.
(§2) When the cells were near confluence, they were incubated for one hour in the presence or absence of the following compounds: BXT-51072, BXT-51077 or pentoxifylline. Compounds BXT-51072 and BXT-51077, each at 10 μM, and the pentoxifylline, at 50 μM, were incorporated in culture medium containing 2% of foetal calf serum, all other conditions being the same. […] Myeloperoxidase (MPO), an enzyme specifically contained in PMNs, was then measured in the cell lysates obtained to evaluate adhesion of the PMNs on the endothelial cells. The von Willebrandt factor (vWf) liberated in the culture medium by the endothelial cells was measured after three and a half hours of incubation, as a label of the changes in the cells.
(§3) Incubation of the endothelial cells in the presence of PMN and TNF-α led to a very significant increase in the quantity of MPO and vWf with respect to the respective controls (PMN alone, and endothelial cells alone respectively), meaning the adhesion of activated PMNs to the endothelial cells and changes in the latter.
(§4) They are expressed as the percentage inhibition by referring the MPO and vWf measurements to the respective concentrations of MPO and vWf determined when the endothelial cells were incubated with TNF-α and PMNs.

endothelial cells [2] = assay: Endothelial changes induced by PMN and TNF-α (von Willebrandt factor release); assay type: cell-based, human; conditions: BXT compounds 10 μM, pentoxifylline 50 μM; TNF-α 1 ng/ml; 3.5 h
Description: as §1, §2, §3, §4

interleukin 8 (IL-8) = assay: Endothelial production of interleukin 8 induced by TNF-α; assay type: cell-based, human; conditions: Homo sapiens, 4 h, read-out: inhibition of IL-8 production induced by TNF-α
Description: as §1
When the cells were near confluence, they were incubated for one hour in the presence or absence of the following compounds: BXT-51072, BXT-51077 or ebselen. Each of these compounds was incorporated into culture medium containing 2% of foetal calf serum at 10 μM, all other conditions being the same. […] After four hours of incubation, the interleukin 8 (IL-8) in the culture medium was measured.

[3] = system: von Willebrandt factor (vWf); assay: Protection of endothelial cells against interleukin 1 (von Willebrandt factor release); assay type: cell-based; conditions: Homo sapiens, Endothelial cell; compound 10 μM; IL-1α 50 U/ml; 4 h; compound present or not during IL-1 incubation; read-out: inhibition of increase in vWf liberation induced by IL-1
Description: as §1
When the cells were near confluence, they were incubated for one hour in the presence or absence of the following compounds: BXT-51072, BXT-51077, each of these compounds being at 10 μM in culture medium containing 2% of foetal calf serum , all other conditions being the same. The cells were then washed three times with a PBS buffer. The cells which had not been pretreated by a compound were incubated in the presence or absence (control) of interleukin 1α (IL-1α), at 50 U/ml, in the same culture medium. […] After four hours of incubation, the von Willebrandt factor (vWf) in the culture medium was measured.

## CC1(C)CN[Se]c2ccccc21 [BXT-51072, 4,4-dimethyl-benzisoselenazine]
Endothelial cells [1]
  inhibition of the adhesion of PMN induced by TNF-α (MPO): inhibit the adhesion of PMN induced by TNF-α, much more effectively than pentoxifylline
Endothelial cells [2]
  protection of endothelial cells against the deleterious effects of activated PMNs (vWf): protect endothelial cells against the deleterious effects of activated PMNs
Interleukin 8 (IL-8)
  inhibition at 10 µM: ≥ 70%
[3]
  inhibition at 10 µM: > 70%
